Assay results: US20240327463A1, “ANTIBACTERIAL PRODUCTS” (priority 2017, published 2024)
Converted amounts (≈) assume the structure as drawn. Bridge positions count the residues as written; N and C are the ends. Square brackets hold non-standard residues; d marks the D form. Peptide text beside a SMILES is read from it. I, II: the chains in the order shown. dNMeF = CN[C@H](Cc1ccccc1)C(=O)O

How the values were obtained:
[1] = test system: MRSA DR 42412 (sputum); assay: microbe, parasite or virus in culture; details: Staphylococcus aureus, MRSA
How it was run: (§1)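 Peptides were dissolved in DMSO and serially diluted twofold in Mueller Hinton broth from a top concentration of 512 μg/ml. Bacteria were grown in the same broth, and plates were incubated at 37° C for 24 hours. MIC was the lowest concentration showing no visible growth, done three times.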

[2] = test system: M. smegmatis ATCC 607; assay: microbe, parasite or virus in culture; details: Mycolicibacterium smegmatis, ATCC607
How it was run: as §1

[3] = test system: MRSA DM21455 (eye); assay: microbe, parasite or virus in culture; details: Staphylococcus aureus, MRSA
How it was run: as §1

[4] = test system: VRE ATCC 700802; assay: microbe, parasite or virus in culture; details: Enterococcus
How it was run: as §1

[5] = test system: MRSA ATCC 700699; assay: microbe, parasite or virus in culture; details: Staphylococcus aureus
How it was run: as §1

[6] = test system: ATCC 29212; assay: microbe, parasite or virus in culture; details: Enterococcus
How it was run: as §1

[7] = test system: Staphylococcus aureus ATCC 29213; assay: microbe, parasite or virus in culture; details: Staphylococcus aureus, ATCC29213
How it was run: as §1

[8] = test system: A. baumannii; assay type: cell-based
How it was run: (§2)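 Bacteria were cultured in Mueller Hinton broth, and all incubations were run at 37 °C. Compounds were serially diluted in Mueller Hinton across the plate up to well 11. Each determination was repeated three times.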

[9] = test system: MRSA; assay type: cell-based, Staphylococcus aureus
How it was run: as §2

[10] = test system: E. coli; assay type: cell-based, Escherichia coli
Experimental: Bacteria were grown on Mueller Hinton broth (oxoid). All incubations were at 37° C. Dilutions were carried out using Mueller Hinton. […] This process was repeated up to well 11. […] This was repeated three times. […] Results are tabulated in the Examples.

| SMILES | MIC [1] [mg/L] | MIC [2] [mg/L] | MIC [3] [mg/L] | MIC [4] [mg/L] | MIC [5] [mg/L] | MIC [6] [mg/L] | MIC [7] [mg/L] | MIC A baumannii [8] [mg/L] | MIC (MRSA) [9] [mg/L] | MIC Ecoli [10] [mg/L] |
| --- | --- | --- | --- | --- | --- | --- | --- | --- | --- | --- |
| CN[C@H](CC(C)C)C(=O)N[C@H]1C(=O)N[C@@H](CC(N)=O)C(=O)N[C@H]2C(=O)N[C@H]3C(=O)N[C@H](C(=O)N[C@H](C(=O)O)c4cc(O)cc(O)c4-c4cc3ccc4O)[C@H](O)c3ccc(c(Cl)c3)Oc3cc2cc(c3O[C@@H]2O[C@H](CO)[C@@H](O)[C@H](O)[C@H]2O[C@H]2C[C@](C)(N)[C@H](O)[C@H](C)O2)Oc2ccc(cc2Cl)[C@H]1O [Vancomycin, reference compound] | 2 (≈ 1.38 µM) | > 64 | 2 (≈ 1.38 µM) | > 4 | 2 (≈ 1.38 µM) | > 4 | 4 (≈ 2.76 µM) | – | – | – |
| CC[C@@H](C)[C@@H](NC(=O)[C@@H](CCC(N)=O)NC(=O)[C@H](CCCCNC(=O)[C@H](CCCCN)NC(=O)[C@H](CCCCN)NC(=O)[C@H](CCCCN)NC(=O)[C@H](CCCCN)NC(=O)[C@H](CCCCN)NC(=O)[C@@H](N)CCCNC(=N)N)NC(=O)[C@@H](NC(=O)[C@@H](Cc1ccccc1)NC)[C@@H](C)CC)C(=O)N[C@H](C(=O)N[C@@H](CO)C(=O)N[C@H]1C(=O)N[C@@H](C)C(=O)N[C@@H](CC(C)C)C(=O)N[C@@H]([C@@H](C)CC)C(=O)O[C@H]1C)[C@@H](C)CC [Compound 54, Leu10-Teixobactin-3-(S3K-K5R) conjugate] (I: H-[dNMeF]IK[dQ][dI]IS[dT]ALI / II: H-RKKKKK; amide I:3-II:C; ester I:8-I:C) | – | – | – | – | – | – | – | 2 (≈ 0.981 µM) | 8 (≈ 3.92 µM) | 16 (≈ 7.84 µM) |
